In ChEMBL document CHEMBL1201862, “PubChem BioAssay data set” (2004):
Activity calls are given as the source filed them.

Columns and labels:
[1] = molecular target: T1, DNA repair and recombination protein RAD54-like (Homo sapiens, UniProt Q92698); assay: RAD54 Holliday junction migration blockers – biochemical, fluorescence, cherry-picked samples, dose series, confirmation (AID 651657); type: functional
T1 sequence (Q92698 whole entry): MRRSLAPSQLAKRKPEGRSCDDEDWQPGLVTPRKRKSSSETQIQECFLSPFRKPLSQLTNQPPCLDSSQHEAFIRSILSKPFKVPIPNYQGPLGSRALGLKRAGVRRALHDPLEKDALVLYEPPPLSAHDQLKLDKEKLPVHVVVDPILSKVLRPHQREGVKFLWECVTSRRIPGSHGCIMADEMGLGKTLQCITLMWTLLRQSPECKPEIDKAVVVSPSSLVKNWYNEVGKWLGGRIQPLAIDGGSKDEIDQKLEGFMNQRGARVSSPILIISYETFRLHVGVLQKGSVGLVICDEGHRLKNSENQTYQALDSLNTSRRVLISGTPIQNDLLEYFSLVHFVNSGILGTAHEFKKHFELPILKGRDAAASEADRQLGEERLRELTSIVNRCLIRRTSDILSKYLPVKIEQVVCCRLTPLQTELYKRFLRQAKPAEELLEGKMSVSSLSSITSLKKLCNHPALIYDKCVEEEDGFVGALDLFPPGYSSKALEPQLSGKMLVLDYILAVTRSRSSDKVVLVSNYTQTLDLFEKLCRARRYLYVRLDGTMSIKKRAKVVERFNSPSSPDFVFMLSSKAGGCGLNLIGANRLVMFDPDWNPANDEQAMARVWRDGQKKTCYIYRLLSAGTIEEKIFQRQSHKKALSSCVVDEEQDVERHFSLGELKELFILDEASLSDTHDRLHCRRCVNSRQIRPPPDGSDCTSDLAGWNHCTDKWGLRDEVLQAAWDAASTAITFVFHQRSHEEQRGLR

Cytochrome P450 2D6 = Cytochrome P450 2D6 (Homo sapiens, UniProt P10635);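 note: CYP2D6 member of a cytochrome P450 panel assay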
[2] = non-specific 3'UTR reporter inhibition in Clone20-Shn3RL – cell-based, Renilla luciferase, cherry-picked, counter-screen for Shn3 inhibitor project, dose response (AID 624133); type: functional
Protein Wnt-3a = Protein Wnt-3a (Mus musculus, UniProt P27467); assay: antagonism of Wnt3a pathway luciferase reporter – Wnt-LIGHT cells, luminescence, selectivity assay for Gli-SUFU antagonist project, dose response (AID 651570); type: functional; conditions: read-out: IC50_Mean;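 note: Wnt-LIGHT reporter cells stimulated with conditioned medium from Wnt3a-producing cells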
[3] = reduction of Shn3 3'UTR-driven luciferase in osteoblasts – cell-based, Clone20 osteoblasts, firefly luciferase, cherry-picked, dose response (AID 624132); type: functional;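 note: firefly luciferase luminescence from reporter carrying the Shn3 3'UTR in osteoblasts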
[4] = molecular target: Glucose-6-phosphate 1-dehydrogenase (Homo sapiens, UniProt P11413); assay: inhibition of Homo sapiens G6PD, dose series – biochemical, fluorescence, selectivity assay for P. falciparum G6PD inhibitor project, dose response (AID 504792); type: functional
[5] = MIN6 cell viability loss – mouse insulinoma, cytotoxicity control, dose response (AID 2122); type: functional;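 note: confirmatory high-throughput counterscreen run to flag cytotoxic compounds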
[6] = NIH3T3 cell viability loss – ATP luminescence, mouse fibroblasts, counter-screen, dose response (AID 2010); type: functional, cell-based;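 note: cells exposed to compound for about 90 hours before reading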
INS1 = assay: INS-1E survival protection against cytokine death – cell-based, luminescence, retest, dose response (AID 449756); type: functional; conditions: Rattus norvegicus;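 note: cell death triggered by IL-1 beta plus TNF-alpha plus IFN-gamma mixture; protective hits raise ATP signal compared with cytokine alone wells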
[7] = decrease of insulin promoter-GFP reporter – imaging, high-content screening, mouse beta cells (AID 1628); type: functional; conditions: MIN6
[8] = Trypanosoma cruzi growth suppression in host cells – NIH3T3 host cells, beta-gal luminescence, confirmation (AID 2044); type: functional, cell-based;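 note: intracellular parasites grown in NIH/3T3 mouse fibroblasts as host cells; luminescent beta-galactosidase reporter signal from transgenic T. cruzi replicating inside host cells; inhibitors lower the luminescence signal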
[9] = molecular target: Dual specificity tyrosine-phosphorylation-regulated kinase 1A (Rattus norvegicus, UniProt Q63470); type: biochemical, Homo sapiens
[10] = molecular target: T2, Microphthalmia-associated transcription factor (Homo sapiens, UniProt O75030); assay: reducers of TRPM1 reporter luminescence, concentration series – cell-based, SK-MEL-5, cherry-picked, set 3, MITF inhibitor project, dose response (AID 493073); type: functional;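 note: SK-MEL-5 melanoma cells with luciferase driven by the MITF target TRPM1 promoter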
T2 sequence (O75030 whole entry): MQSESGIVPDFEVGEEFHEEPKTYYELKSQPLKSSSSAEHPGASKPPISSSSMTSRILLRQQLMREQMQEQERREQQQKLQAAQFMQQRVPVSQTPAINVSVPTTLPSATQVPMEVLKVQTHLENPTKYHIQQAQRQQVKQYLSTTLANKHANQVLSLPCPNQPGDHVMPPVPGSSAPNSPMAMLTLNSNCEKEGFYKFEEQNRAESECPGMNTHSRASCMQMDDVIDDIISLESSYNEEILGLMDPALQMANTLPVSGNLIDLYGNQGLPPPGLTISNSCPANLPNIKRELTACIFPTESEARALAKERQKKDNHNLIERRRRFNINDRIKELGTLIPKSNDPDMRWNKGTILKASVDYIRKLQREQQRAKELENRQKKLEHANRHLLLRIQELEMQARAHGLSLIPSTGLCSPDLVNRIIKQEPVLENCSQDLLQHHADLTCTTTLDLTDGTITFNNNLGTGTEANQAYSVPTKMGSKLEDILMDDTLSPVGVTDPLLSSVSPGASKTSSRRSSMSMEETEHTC

[11] = molecular target: E3 ubiquitin-protein ligase Mdm2 (Homo sapiens, UniProt Q00987); assay: MDM2-luc reporter signal enhancers, multi-concentration potency testing, MDM2 ubiquitin-protein ligase inhibitor program, whole-cell format, luminescence detection, 384-well microplate (AID 1394); type: functional;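 note: MDM2 E3 inhibitors raise luminescence so EC50 is for signal enhancement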
[12] = system: Streptococcus sp. 'group A'; assay: Streptococcus pyogenes SK(-)GAS viability under kanamycin – luminescence, BacTiterGlo, confirmation, counter-screen for streptokinase expression inhibitor project, dose response (AID 1900); type: functional, organism-based
Streptococcus = assay: GAS UMAA2166 growth inhibition – luminescence, BacTiterGlo, counter-screen for streptokinase expression inhibitor project, dose response (AID 1915); type: functional, organism-based;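 note: potency for reduction of bacterial viability or growth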
[13] = molecular target: T3, RNA-binding protein pos-1 (Caenorhabditis elegans, UniProt G5EF15); assay: disruptors of C. elegans POS-1 RNA interaction – biochemical, fluorescence polarization, dose response (AID 1964);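 note: purified POS-1 fused to maltose binding protein made in E. coli; potency of compounds blocking POS-1 binding to fluorescent RNA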
T3 sequence (G5EF15 whole entry): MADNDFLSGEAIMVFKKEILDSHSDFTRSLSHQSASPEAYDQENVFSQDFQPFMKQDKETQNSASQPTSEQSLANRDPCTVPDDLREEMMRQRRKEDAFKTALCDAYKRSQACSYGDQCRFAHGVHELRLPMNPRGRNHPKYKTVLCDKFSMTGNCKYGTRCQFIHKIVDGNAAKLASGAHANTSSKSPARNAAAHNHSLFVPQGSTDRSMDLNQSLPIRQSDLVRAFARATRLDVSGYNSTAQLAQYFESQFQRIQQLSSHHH

[14] = molecular target: T4, Probable nicotinate-nucleotide adenylyltransferase (Staphylococcus aureus (strain N315), UniProt P65502); type: functional, Staphylococcus aureus subsp. aureus N315;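 for IC50 Mean: confirmatory dose-response retesting of NadD inhibitor hits first found in an ultra-high-throughput screen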
[15] = molecular target: T4, Probable nicotinate-nucleotide adenylyltransferase; type: functional, Staphylococcus aureus subsp. aureus N315; conditions: read-out: IC50_Mean
[16] = molecular target: T5, Zinc finger protein mex-5 (Caenorhabditis elegans, UniProt Q9XUB2); assay: potency of MEX-5 RNA-binding blockers – biochemical, C. elegans, fluorescence polarization, dose response (AID 1960)
T5 sequence (Q9XUB2 whole entry): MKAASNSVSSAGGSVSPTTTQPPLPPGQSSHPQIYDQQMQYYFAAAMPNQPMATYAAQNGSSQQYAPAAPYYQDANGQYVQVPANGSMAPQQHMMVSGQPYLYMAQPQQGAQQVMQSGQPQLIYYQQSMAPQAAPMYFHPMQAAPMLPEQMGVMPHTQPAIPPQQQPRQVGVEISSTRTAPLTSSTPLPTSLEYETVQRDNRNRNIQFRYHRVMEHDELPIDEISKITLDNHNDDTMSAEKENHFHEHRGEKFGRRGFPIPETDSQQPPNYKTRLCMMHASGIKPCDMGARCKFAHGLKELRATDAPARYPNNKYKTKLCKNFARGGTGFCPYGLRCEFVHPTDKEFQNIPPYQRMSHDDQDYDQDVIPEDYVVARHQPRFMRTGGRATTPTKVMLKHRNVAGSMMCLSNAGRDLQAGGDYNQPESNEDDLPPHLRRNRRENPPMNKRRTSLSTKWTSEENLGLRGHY

[17] = molecular target: T6, Mannose-6-phosphate isomerase (Homo sapiens, UniProt P34949); assay: phosphomannose isomerase inhibition – biochemical, fluorescence intensity, confirmation (AID 1535)
T6 sequence (P34949 whole entry): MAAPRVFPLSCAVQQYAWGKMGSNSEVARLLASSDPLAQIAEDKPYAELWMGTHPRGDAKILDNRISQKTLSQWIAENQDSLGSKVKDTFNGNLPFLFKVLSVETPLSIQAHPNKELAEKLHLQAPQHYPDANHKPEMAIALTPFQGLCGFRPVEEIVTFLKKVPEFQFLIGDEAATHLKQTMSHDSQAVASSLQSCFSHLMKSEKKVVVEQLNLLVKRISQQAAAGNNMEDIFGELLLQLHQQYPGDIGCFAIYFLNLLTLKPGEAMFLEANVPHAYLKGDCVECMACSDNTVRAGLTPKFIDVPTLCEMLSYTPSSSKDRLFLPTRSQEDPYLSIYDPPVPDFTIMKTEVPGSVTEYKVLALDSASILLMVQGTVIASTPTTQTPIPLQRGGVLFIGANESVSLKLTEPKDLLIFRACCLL

Cytochrome P450 3A4 = Cytochrome P450 3A4 (Homo sapiens, UniProt P08684);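 note: CYP3A4 tested as one member of a cytochrome P450 panel screen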
[18] = microbe, parasite or virus in culture; type: functional; conditions: Mycobacterium tuberculosis
[19] = molecular target: DNA dC->dU-editing enzyme APOBEC-3G (Homo sapiens, UniProt Q9HC16); assay: inhibition of APOBEC3G ssDNA deamination – biochemical, fluorescence, single-stranded DNA substrate, SAR follow-up (AID 602136); type: functional; conditions: read-out: IC50_Mean
[20] = molecular target: DNA dC->dU-editing enzyme APOBEC-3A (Homo sapiens, UniProt P31941); assay: SAR analysis of small molecule inhibitors of APOBEC3A DNA Deaminase via a fluorescence-based single-stranded DNA deaminase assay.; type: functional; conditions: read-out: IC50_Mean
HEK293 = assay: EBV LMP1 TES2 canonical NF-kB signalling blockers – cell-based, HEK293, luciferase, cherry-pick, dose response (AID 588343); type: functional; conditions: Homo sapiens

DNA dC->dU-editing enzyme APOBEC-3G, sequence (Q9HC16 whole entry): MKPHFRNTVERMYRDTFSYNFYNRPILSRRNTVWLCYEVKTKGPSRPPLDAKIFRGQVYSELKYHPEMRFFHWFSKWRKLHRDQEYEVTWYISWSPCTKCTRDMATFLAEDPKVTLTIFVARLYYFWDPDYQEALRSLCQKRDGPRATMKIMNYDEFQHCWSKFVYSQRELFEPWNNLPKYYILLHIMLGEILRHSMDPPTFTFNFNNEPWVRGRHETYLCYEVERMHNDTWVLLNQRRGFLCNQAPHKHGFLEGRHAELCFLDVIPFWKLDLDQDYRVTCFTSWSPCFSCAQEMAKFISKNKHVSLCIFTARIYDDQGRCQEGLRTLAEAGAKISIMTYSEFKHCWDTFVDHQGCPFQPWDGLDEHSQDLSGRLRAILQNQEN
Protein Wnt-3a, sequence (P27467 whole entry): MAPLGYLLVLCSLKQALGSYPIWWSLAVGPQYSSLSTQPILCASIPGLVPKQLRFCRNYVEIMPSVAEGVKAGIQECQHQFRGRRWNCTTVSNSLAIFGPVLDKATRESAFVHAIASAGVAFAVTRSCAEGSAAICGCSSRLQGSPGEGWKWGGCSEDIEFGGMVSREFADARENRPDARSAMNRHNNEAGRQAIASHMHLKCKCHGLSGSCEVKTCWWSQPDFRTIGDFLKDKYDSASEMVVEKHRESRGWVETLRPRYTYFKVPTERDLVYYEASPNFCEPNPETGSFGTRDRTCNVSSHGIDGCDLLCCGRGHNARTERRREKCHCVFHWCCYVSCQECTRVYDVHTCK
DNA dC->dU-editing enzyme APOBEC-3A, sequence (P31941 whole entry): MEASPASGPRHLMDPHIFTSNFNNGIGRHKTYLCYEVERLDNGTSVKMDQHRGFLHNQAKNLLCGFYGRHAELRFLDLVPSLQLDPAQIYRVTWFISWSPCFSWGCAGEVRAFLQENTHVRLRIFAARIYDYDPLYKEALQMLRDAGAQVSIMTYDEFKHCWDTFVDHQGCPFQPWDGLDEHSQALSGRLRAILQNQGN
T4 sequence (P65502 whole entry): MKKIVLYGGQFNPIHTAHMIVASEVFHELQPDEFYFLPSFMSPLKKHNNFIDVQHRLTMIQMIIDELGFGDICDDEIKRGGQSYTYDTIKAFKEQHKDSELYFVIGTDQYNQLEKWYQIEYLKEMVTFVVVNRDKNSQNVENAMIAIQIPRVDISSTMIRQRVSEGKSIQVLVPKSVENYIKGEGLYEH
Cytochrome P450 2D6, sequence (P10635 whole entry): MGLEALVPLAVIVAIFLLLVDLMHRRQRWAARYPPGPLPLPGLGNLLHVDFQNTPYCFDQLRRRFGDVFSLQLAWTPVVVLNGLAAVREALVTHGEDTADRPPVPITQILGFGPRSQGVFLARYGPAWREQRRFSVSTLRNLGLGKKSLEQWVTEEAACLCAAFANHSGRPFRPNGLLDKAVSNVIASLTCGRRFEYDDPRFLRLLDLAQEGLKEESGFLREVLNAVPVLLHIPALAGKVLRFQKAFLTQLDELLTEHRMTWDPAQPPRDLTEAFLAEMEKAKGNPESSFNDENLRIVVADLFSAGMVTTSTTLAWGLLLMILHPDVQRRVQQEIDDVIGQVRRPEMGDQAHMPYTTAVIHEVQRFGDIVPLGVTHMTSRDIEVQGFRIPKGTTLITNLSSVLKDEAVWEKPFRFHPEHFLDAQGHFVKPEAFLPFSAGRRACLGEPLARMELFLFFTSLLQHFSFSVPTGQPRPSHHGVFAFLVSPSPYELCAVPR
Glucose-6-phosphate 1-dehydrogenase, sequence (P11413 whole entry): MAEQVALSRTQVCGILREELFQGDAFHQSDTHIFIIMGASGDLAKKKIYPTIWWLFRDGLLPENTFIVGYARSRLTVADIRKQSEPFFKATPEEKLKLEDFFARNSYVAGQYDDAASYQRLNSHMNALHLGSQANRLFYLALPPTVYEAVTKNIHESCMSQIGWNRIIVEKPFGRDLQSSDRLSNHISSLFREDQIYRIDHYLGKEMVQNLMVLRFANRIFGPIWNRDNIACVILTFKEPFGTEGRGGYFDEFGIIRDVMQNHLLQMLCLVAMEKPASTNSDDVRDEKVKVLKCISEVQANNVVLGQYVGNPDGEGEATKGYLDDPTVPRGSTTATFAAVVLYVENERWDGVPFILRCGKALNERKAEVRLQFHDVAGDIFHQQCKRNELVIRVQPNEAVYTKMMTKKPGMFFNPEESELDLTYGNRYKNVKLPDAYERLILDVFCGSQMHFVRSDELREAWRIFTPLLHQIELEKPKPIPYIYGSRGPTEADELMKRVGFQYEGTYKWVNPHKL
Cytochrome P450 3A4, sequence (P08684 whole entry): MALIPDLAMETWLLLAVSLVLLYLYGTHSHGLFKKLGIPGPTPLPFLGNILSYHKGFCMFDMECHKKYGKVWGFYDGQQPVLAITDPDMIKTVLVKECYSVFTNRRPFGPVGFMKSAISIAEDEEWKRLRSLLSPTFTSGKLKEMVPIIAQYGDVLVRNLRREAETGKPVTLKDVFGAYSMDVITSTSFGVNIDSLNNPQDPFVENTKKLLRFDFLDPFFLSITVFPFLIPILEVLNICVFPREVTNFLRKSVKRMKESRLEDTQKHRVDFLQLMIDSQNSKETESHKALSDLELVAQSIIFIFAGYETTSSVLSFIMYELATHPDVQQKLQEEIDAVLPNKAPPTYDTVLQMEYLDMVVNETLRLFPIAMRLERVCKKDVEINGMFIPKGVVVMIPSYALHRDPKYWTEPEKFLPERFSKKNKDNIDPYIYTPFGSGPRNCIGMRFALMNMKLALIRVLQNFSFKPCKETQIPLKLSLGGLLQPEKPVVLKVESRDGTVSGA
E3 ubiquitin-protein ligase Mdm2, sequence (Q00987 whole entry): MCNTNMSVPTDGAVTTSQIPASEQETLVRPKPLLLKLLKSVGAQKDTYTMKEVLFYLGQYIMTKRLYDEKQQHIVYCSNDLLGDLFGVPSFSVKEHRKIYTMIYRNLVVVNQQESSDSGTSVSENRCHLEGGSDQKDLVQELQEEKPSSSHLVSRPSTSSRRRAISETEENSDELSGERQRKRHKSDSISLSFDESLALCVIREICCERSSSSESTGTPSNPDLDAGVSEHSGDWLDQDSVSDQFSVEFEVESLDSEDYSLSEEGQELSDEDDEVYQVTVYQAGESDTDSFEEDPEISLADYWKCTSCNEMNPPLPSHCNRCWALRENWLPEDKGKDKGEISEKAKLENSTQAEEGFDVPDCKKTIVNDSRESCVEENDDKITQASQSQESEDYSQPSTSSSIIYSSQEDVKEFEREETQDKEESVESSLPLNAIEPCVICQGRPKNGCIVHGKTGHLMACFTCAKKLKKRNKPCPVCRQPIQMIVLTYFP

Cc1ccc(-c2nc(NCCCO)c3ccccc3n2)cc1
AC50 [1]: 79.6 µM (active)

O=C1CN(/N=C\c2ccc(-c3ccc([N+](=O)[O-])cc3)o2)C([O-])=N1.[Na+]
AC50 (Cytochrome P450 2D6): inactive

CC(C)=CCC/C(C)=C/CNC(=O)C[C@H]1C[C@H](C(=O)N2CCOCC2)[C@@]2(C)c3[nH]c4cc(CCC(=O)N(C)C)ccc4c3CCN2C1=O
AC50 [2]: 1.33 µM (active) | IC50 (Protein Wnt-3a): 23.6 µM (inactive) | AC50 [3]: 1.11 µM (active)

C[C@H](NC(=O)c1cc2c3ccccc3nc-2c[nH]1)C(=O)O
IC50 [4]: > 80 µM (inactive)

O=C(Nc1nc2ccc([N+](=O)[O-])cc2s1)c1ccc(S(=O)(=O)N2CCCc3ccccc32)cc1
IC50 [5]: 1.46 µM (active) | EC50 [6]: > 30 µM (not active) | AC50 (INS1): 3.34 µM (active) | IC50 [7]: 2.16 µM (active) | EC50 [8]: 2.01 µM (active)

N=c1oc2cc(O)ccc2cc1C(=O)Nc1ccc(F)cc1
AC50 [9]: 14.5 µM (active)

O=C(c1ccc(C(F)(F)F)cc1)C1CCCN(Cc2ccncc2)C1 (configuration not stated)
IC50 (Protein Wnt-3a): 5.15 µM (active)

CO[C@@H]1COC(=O)CCC[C@@H](C)[C@H](OC)COC(=O)CCC[C@H]1C
AC50 (Cytochrome P450 2D6): inconclusive

Cc1n[nH]c(NC(=O)/C=C/c2ccccc2)n1
AC50 [10]: 17.8 µM (active) | EC50 [11]: 1.09 µM (active)

CCCCCCCn1c(=N)n(CC(O)c2ccco2)c2ccccc21 (configuration not stated)
IC50 [5]: 3.55 µM (active) | IC50 [7]: 1.79 µM (active)

Cc1ccc2sc(NNC(=O)c3cc(=O)c4ccccc4o3)nc2c1C
EC50 [12]: 0.744 µM (active) | EC50 (Streptococcus): 2.5 µM (active) | EC50 [13]: > 300 µM (not active) | IC50 [14]: 4.17 µM (active) | IC50 [15]: 17.7 µM (active) | EC50 [16]: > 300 µM (inconclusive)

NCCc1cc(O)c(O)cc1O
IC50 [4]: > 80 µM (inactive)

O=C(N[C@@H]1C/C=C\C[C@@H](CC(=O)N(CCO)Cc2ccccc2)C(=O)NC[C@H](c2ccccc2)OC1=O)OCC1c2ccccc2-c2ccccc21
AC50 [2]: 4.32 µM (active) | IC50 (Protein Wnt-3a): 8.93 µM (active) | AC50 [3]: 7.04 µM (active)

Clc1ncccc1/N=c1\ssnc1Cl
IC50 [17]: 9.88 µM (active)

Cc1ccc(C(=O)O/N=C\c2ccc(N3CCCCC3)c([N+](=O)[O-])c2)cc1
AC50 (Cytochrome P450 2D6): inconclusive | AC50 (Cytochrome P450 3A4): 22.4 µM (inconclusive) | CC50 [18]: > 40 µM (active)

Cc1ccc(CN(C)C(=O)CSc2nnc(-c3ccc(F)cc3)n2C)o1
IC50 [19]: > 99 µM (inactive) | IC50 [20]: > 99 µM (inactive)

CCCCN1CCc2cc(/C=C3\C(=O)NC(=S)N(C4CC4)C3=O)ccc21
IC50 [19]: 68.2 µM (inactive) | IC50 [20]: 57.1 µM (inactive)

O=[N+]([O-])c1ccc(/C=N/Nc2ccnc3cc(Cl)ccc23)o1
AC50 (INS1): 9.06 µM (active) | AC50 [10]: 15.3 µM (active)

COc1ccc(-c2nnc(SCC(=O)N(C)Cc3cccs3)[nH]2)cc1
IC50 [19]: > 99 µM (inactive) | IC50 [20]: > 99 µM (inactive)

COc1ccc2c(c1)CCc1c[nH]nc1-2
AC50 [9]: > 120 µM (inactive)

O=C1C(/C=N/Cc2ccncc2)=C(O)c2ccccc21
AC50 [9]: 7.11 µM (active)

CCc1nnc(NS(=O)(=O)c2ccc(/N=C/c3c(C)nn(-c4ccc(Cl)cc4)c3O)cc2)s1
IC50 [14]: 6.87 µM (active) | IC50 [15]: 25.5 µM (active)

Cc1cc(O)nc(N=N/C(=N/Nc2ccccc2C)c2ccccc2)n1
IC50 [5]: 1.36 µM (active) | IC50 [7]: 1.46 µM (active) | AC50 (HEK293): 4.66 µM (active)
